Values after ≈ are worked out from the molar mass of the structure shown.
Key:
Assay type in all cases: functional
[1] = tested on: Alternaria solani; assay: Antifungal activity against Alternaria solani assessed as inhibition of growth at 50 ug/ml; conditions: read-out: GI
[2] = tested on: Botrytis cinerea; assay: Antifungal activity against Botrytis cinerea assessed as inhibition of growth at 50 ug/ml; conditions: read-out: GI
[3] = tested on: Mycosphaerella arachidis; assay: Antifungal activity against Cercospora arachidicola assessed as inhibition of growth at 50 ug/ml; conditions: read-out: GI
[4] = tested on: Fusarium graminearum; assay: Antifungal activity against Gibberella zeae assessed as inhibition of growth at 50 ug/ml; conditions: read-out: GI
[5] = tested on: Phytophthora infestans; assay: Antifungal activity against Phytophthora infestans assessed as inhibition of growth at 50 ug/ml; conditions: read-out: GI
[6] = tested on: Botryosphaeria berengeriana; assay: Antifungal activity against Physalospora pyricola assessed as inhibition of growth at 50 ug/ml; conditions: read-out: GI
[7] = Antifungal activity against Pellicularia sasakii assessed as inhibition of growth at 50 ug/ml; conditions: read-out: GI
[8] = tested on: Sclerotinia sclerotiorum; assay: Antifungal activity against Sclerotinia sclerotiorum assessed as inhibition of growth at 50 ug/ml; conditions: read-out: GI
[9] = tested on: Ceratobasidium cereale; assay: Antifungal activity against Rhizoctonia cerealis assessed as inhibition of growth at 50 ug/ml; conditions: read-out: GI
[10] = tested on: Cryptococcus neoformans; assay: Antifungal activity against Cryptococcus neoformans LA314 assessed as reduction in fungal cell growth incubated for 48 hrs by broth microdilution method; conditions: LA314, 48 h
[11] = tested on: Nakaseomyces glabratus; assay: Antifungal activity against Candida glabrata assessed as reduction in fungal cell growth incubated for 48 hrs by broth microdilution method
[12] = tested on: Candida parapsilosis; assay: Antifungal activity against Candida parapsilosis ATCC 22019 assessed as reduction in fungal cell growth incubated for 48 hrs by broth microdilution method; conditions: Lodderomyces parapsilosis, ATCC 22019, 48 h
[13] = tested on: Pichia kudriavzevii; assay: Antifungal activity against Candida krusei assessed as reduction in fungal cell growth incubated for 48 hrs by broth microdilution method
[14] = tested on: Candida tropicalis; assay: Antifungal activity against Candida tropicalis assessed as reduction in fungal cell growth incubated for 48 hrs by broth microdilution method
[15] = tested on: Aspergillus niger; assay: Antifungal activity against Aspergillus niger assessed as reduction in fungal cell growth incubated for 72 hrs by broth microdilution method
[16] = tested on: Candida albicans; assay: Antifungal activity against Candida albicans V-01-191A-261 assessed as reduction in fungal cell growth incubated for 48 hrs by broth microdilution method; conditions: V-01-191A-261, 48 h
[17] = tested on: Candida albicans; assay: Antifungal activity against Candida albicans TA
[18] = tested on: Candida albicans; assay: In vivo antifungal activity against Candida albicans TA infected in CDF-1 mouse dosed orally assessed as survival of mouse; conditions: po
[19] = tested on: Aspergillus flavus; assay: Antifungal activity against Aspergillus flavus assessed as inhibition zone at 20 ug/ml by disk diffusion method; conditions: read-out: IZ
[20] = tested on: Aspergillus fumigatus; assay: Antifungal activity against Aspergillus fumigatus assessed as inhibition zone at 20 ug/ml by disk diffusion method; conditions: read-out: IZ
[21] = tested on: Aspergillus niger; assay: Antifungal activity against Aspergillus niger assessed as inhibition zone at 20 ug/ml by disk diffusion method; conditions: read-out: IZ
[22] = tested on: Candida albicans; assay: Antifungal activity against Candida albicans assessed as inhibition zone at 20 ug/ml by disk diffusion method; conditions: read-out: IZ
[23] = tested on: Candida albicans; assay: Antifungal activity against Candida albicans assessed as reduction in fungal cell growth incubated for 24 hrs by broth microdilution method
[24] = tested on: Nakaseomyces glabratus; assay: Antifungal activity against Candida glabrata assessed as reduction in fungal cell growth incubated for 24 hrs by broth microdilution method
[25] = tested on: Pichia kudriavzevii; assay: Antifungal activity against Candida krusei assessed as reduction in fungal cell growth incubated for 24 hrs by broth microdilution method
[26] = tested on: Candida tropicalis; assay: Antifungal activity against Candida tropicalis assessed as reduction in fungal cell growth incubated for 24 hrs by broth microdilution method
[27] = tested on: Candida albicans; assay: Antifungal activity against Candida albicans assessed as inhibition zone at 100 ug/ml; conditions: read-out: IZ
[28] = tested on: Aspergillus niger; assay: Antifungal activity against Aspergillus niger assessed as inhibition zone at 100 ug/ml; conditions: read-out: IZ
[29] = tested on: Candida albicans; assay: Antifungal activity against Candida albicans assessed as reduction in fungal cell growth incubated for 48 hrs by broth microdilution susceptibility method
[30] = tested on: Aspergillus niger; assay: Antifungal activity against Aspergillus niger assessed as reduction in fungal cell growth incubated for 48 hrs by broth microdilution susceptibility method
[31] = tested on: Candida albicans; assay: Antifungal activity against Candida albicans assessed as reduction in fungal cell growth incubated for 24 and 72 hrs by cup plate method
[32] = tested on: Aspergillus flavus; assay: Antifungal activity against Aspergillus flavus assessed as reduction in fungal cell growth incubated for 24 and 72 hrs by cup plate method
[33] = tested on: Candida albicans; assay: Antifungal activity against Candida albicans assessed as inhibition zone at 125 ug/ml by disk diffusion method; conditions: read-out: IZ
[34] = tested on: Aspergillus fumigatus; assay: Antifungal activity against Aspergillus fumigatus assessed as reduction in fungal cell growth incubated for 48 hrs by broth microdilution method
[35] = tested on: Aspergillus niger; assay: Antifungal activity against Aspergillus niger assessed as reduction in fungal cell growth incubated for 48 hrs by broth microdilution method
[36] = tested on: Candida albicans; assay: Antifungal activity against Candida albicans
[37] = tested on: Nakaseomyces glabratus; assay: Antifungal activity against Candida glabrata ATCC 36583 by broth microdilution method
[38] = tested on: Candida tropicalis; assay: Antifungal activity against Candida tropicalis by broth microdilution method
[39] = tested on: Candida albicans; assay: Antifungal activity against Candida albicans NCCS 3471 assessed as inhibition zone at 50 ug/ml by disk diffusion method; conditions: read-out: IZ
[40] = tested on: Aspergillus niger; assay: Antifungal activity against Aspergillus niger assessed as inhibition zone at 50 ug/ml by disk diffusion method; conditions: read-out: IZ
[41] = tested on: Candida albicans; assay: Antifungal activity against Candida albicans NCCS 3471 assessed as inhibition zone at 10 ug/ml incubated for 3 to 4 days by disk diffusion method; conditions: read-out: IZ
[42] = tested on: Aspergillus fumigatus; assay: Antifungal activity against Aspergillus fumigatus NCIM 902 assessed as inhibition zone at 10 ug/ml incubated for 3 to 4 days by disk diffusion method; conditions: read-out: IZ
[43] = tested on: Staphylococcus aureus; assay: Antifungal activity against methicillin-resistant Staphylococcus aureus after 24 hrs by broth microdilution assay
[44] = tested on: Staphylococcus aureus; assay: Potency index, ratio for MIC of methicillin to MIC of compound for […] incubated for 24 hrs by broth microdilution method
[45] = tested on: Aspergillus niger; assay: Potency index, ratio for MIC of fluconazole to MIC of compound for antifungal activity against Aspergillus niger
[46] = tested on: Saccharomyces cerevisiae; assay: Potency index, ratio for MIC of fluconazole to MIC of compound for antifungal activity against Saccharomyces cerevisiae
[47] = tested on: Aspergillus fumigatus; assay: Potency index, ratio for MIC of fluconazole to MIC of compound for antifungal activity against Aspergillus fumigatus

## Cc1snnc1C(Nc1ccc([N+](=O)[O-])cc1)c1nnnn1C1CCCCC1 (stereo not drawn)
[1]
  inhibition of growth at 50 µg/mL: 20 to 65.4%
[2]
  inhibition of growth at 50 µg/mL: 20 to 65.4%
[3]
  inhibition of growth at 50 µg/mL: 20 to 65.4%
[4]
  inhibition of growth at 50 µg/mL: 20 to 65.4%
[5]
  inhibition of growth at 50 µg/mL: 20 to 65.4%
[6]
  inhibition of growth at 50 µg/mL: 20 to 65.4%
[7]
  inhibition of growth at 50 µg/mL: 20 to 65.4%
[8]
  inhibition of growth at 50 µg/mL: 20 to 65.4%
[9]
  inhibition of growth at 50 µg/mL: 20 to 65.4%

## OC(Cn1cncn1)(Cn1cncn1)c1ccc(F)cc1F [FLUCONAZOLE]
[10]
  MIC: 2 to 8 µg/mL (≈ 6.53 to 26.1 µM)
[11]
  MIC: 2 to 8 µg/mL (≈ 6.53 to 26.1 µM)
[12]
  MIC: 2 to 8 µg/mL (≈ 6.53 to 26.1 µM)
[13]
  MIC: 2 to 8 µg/mL (≈ 6.53 to 26.1 µM)
[14]
  MIC: 2 to 8 µg/mL (≈ 6.53 to 26.1 µM)
[15]
  MIC: 2 to 8 µg/mL (≈ 6.53 to 26.1 µM)
[16]
  MIC: 2 to 8 µg/mL (≈ 6.53 to 26.1 µM)
[17]
  MIC: 100 µg/mL (≈ 327 µM)
[18]
  ED50: 0.29 to 0.35 mg/kg
[19]
  zone of inhibition at 20 µg/mL: 19 to 22 mm
[20]
  zone of inhibition at 20 µg/mL: 19 to 22 mm
[21]
  zone of inhibition at 20 µg/mL: 19 to 22 mm
[22]
  zone of inhibition at 20 µg/mL: 19 to 22 mm
[23]
  MIC: 1 to 4 µg/mL (≈ 3.27 to 13.1 µM)
[24]
  MIC: 1 to 4 µg/mL (≈ 3.27 to 13.1 µM)
[25]
  MIC: 1 to 4 µg/mL (≈ 3.27 to 13.1 µM)
[26]
  MIC: 1 to 4 µg/mL (≈ 3.27 to 13.1 µM)
[27]
  zone of inhibition at 100 µg/mL: 22 to 25 mm
[28]
  zone of inhibition at 100 µg/mL: 22 to 25 mm
[29]
  MIC: 6.25 µg/mL (≈ 20.4 µM)
[30]
  MIC: 6.25 µg/mL (≈ 20.4 µM)
[31]
  MIC: 25 µg/mL (≈ 81.6 µM)
[32]
  MIC: 25 µg/mL (≈ 81.6 µM)
[33]
  zone of inhibition at 125 µg/mL: 14 mm
[34]
  MIC: 2.5 µg/mL (≈ 8.16 µM)
[35]
  MIC: 0.625 to 6.25 µg/mL (≈ 2.04 to 20.4 µM)

## CC(=O)N1CCN(c2ccc(OCC3COC(Cn4ccnc4)(c4ccc(Cl)cc4Cl)O3)cc2)CC1 (stereo not drawn) [KETOCONAZOLE]
[36]
  MIC: 25 to 50 µg/mL (≈ 47 to 94.1 µM)
[37]
  MIC: 25 to 50 µg/mL (≈ 47 to 94.1 µM)
[38]
  MIC: 25 to 50 µg/mL (≈ 47 to 94.1 µM)
[39]
  zone of inhibition at 50 µg/mL: 26 mm
[40]
  zone of inhibition at 50 µg/mL: 23 mm
[41]
  zone of inhibition at 10 µg/mL: 24 mm
[42]
  zone of inhibition at 10 µg/mL: 23 mm

## COc1cccc(OC)c1C(=O)N[C@@H]1C(=O)N2[C@@H]1SC(C)(C)[C@@H]2C(=O)O [METHICILLIN]
[43]
  MIC: > 250 µg/mL

## FC(F)(F)c1cc(-c2ccc(I)cc2)nc2nnnn12
[23]
  MIC: 62.5 µg/mL (≈ 160 µM)
[44]
  Ratio: >64

## Nc1nc(-c2ccc(-n3cnnn3)cc2)cc(-c2ccc(OC(F)F)c(O)c2)n1
[45]
  Ratio: >=2
[46]
  Ratio: >=2
[47]
  Ratio: >=2

— ChEMBL document CHEMBL4393657, “Tetrazole hybrids and their antifungal activities” (2019)
